The values below come from US8901158B2, “Treatment of bipolar disorder” (Isis Innovation Ltd., priority 2011, dated 2014).

Data set [1] addresses T1, human inositol monophosphatase (Homo sapiens, UniProt P29218).
T1 construct: made in house; host or cells: E. coli BL21 (DE3) pLysS
T1 sequence (P29218 1-277): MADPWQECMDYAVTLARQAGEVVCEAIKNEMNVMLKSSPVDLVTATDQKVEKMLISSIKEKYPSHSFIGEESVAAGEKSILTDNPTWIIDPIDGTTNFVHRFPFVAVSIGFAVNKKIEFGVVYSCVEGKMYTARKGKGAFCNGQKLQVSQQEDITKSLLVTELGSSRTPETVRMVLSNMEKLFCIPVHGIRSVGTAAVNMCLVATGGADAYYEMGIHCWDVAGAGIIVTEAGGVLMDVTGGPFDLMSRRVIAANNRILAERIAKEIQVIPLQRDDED
Description: in vitro IMPase inhibition, malachite green phosphate assay. The format is biochemical. Conditions: for IC50: human IMPase, constant amount of inositol monophosphate. The text has this:
Human inositol monophosphatase cDNA was ordered from Geneservice, Source Bioscience, Cambridge, UK. The cDNA was inserted into plasmid pRSET5a, which was then transformed into JM109 competent cells. These cells were allowed to multiply and the plasmid was then extracted from the cells. The plasmid was then transformed into expression bacteria, E.coli strain BL21 (DE3) pLysS. […] The next day the cells were lysed and the soluble fraction, which contained the enzyme, was collected. Purification was carried out in 3 stages. The soluble fraction was heated at 68° C. for 1 hour and then centrifuged. The supernatant was taken and run through a Q-sepharose column (Pharmacia). Different fractions were collected and assessed for activity. The active fractions were then passed through a Tricorn MonoQ 5/50 GL column (GE Healthcare, UK) for further purification.
Each enzymatic reaction using human inositol monophosphatase contained 0.00013 mg of enzyme (0.0673 mg/mL). The substrate inositol monophosphate (Alexis Chemicals) was diluted with the appropriate buffer to make up a concentration of 50 mM stock. The stock was then diluted with buffer to yield the following concentrations of substrate: 0 mM, 0.1 mM, 0.5 mM, 1.0 mM, 1.5 mM, 2.5 mM, 5 mM, 10 mM, 20 mM, 25 mM and 30 mM. From this 2 μL of substrate was added to each reaction well giving a tenfold dilution of substrate to 0 mM, 0.01 mM, 0.05 mM, 0.1 mM, 0.15 mM, 0.25 mM, 0.5 mM, 1 mM, 2 mM, 2.5 mM and 3 mM. The reaction buffer contained 1 mM EGTA, 150 mM KCl, 3 mM MgCl2, 0.5 ng/mL BSA, 50 mM Tri, HCl, pH 7.4 and 0.01% Triton X100.
A malachite green assay was used for the quantitative determination of free inorganic phosphate present at the end of the IMPase reaction. This involved dissolving 4.2% w/v ammonium molybdate in 4M hydrochloric acid. The Malachite Green itself was made up to 0.045% w/v concentration. From these stocks, a 3:1 malachite green:ammonium molybdate mixture was prepared and vortexed for thirty minutes. The malachite green forms a complex of ammonium molybdate:malachite green:inorganic phosphate in the presence of free inorganic phosphate. To each reaction plate, duplicate wells of a range of known phosphate concentrations were prepared within the concentration range of 0-300 μM with each well containing 20 μL of solution. The phosphate standards were made from serial dilutions of 1M potassium dihydrogen phosphate using double distilled H2O. To each well was added 180 μL of malachite green:ammonium molybdate mix. The colour produced by the reaction between the inorganic phosphate and malachite green:ammonium molybdate was proportional to the amount of phosphate present. The colour was allowed to develop for 15 min and then the plate was read on a TECAN Sunrise microplate reader at 595 nm wavelength.
For the reactions whose results are shown in FIG. 2, lithium (Sigma) was dissolved in double-distilled H2O and diluted appropriately to the concentration of 10 mM with 2 μL of lithium being added per well to yield a final well concentration of 1 mM. Stock concentrations of lithium were also made from this. L690330 was purchased from Sigma Chemicals, and was made up to a 1 mM stock concentration using H2O. From this stock the following concentrations were prepared using serial dilutions with water: 300 μM to 30 nM. These concentrations were used to produce a concentration-inhibition curve for the enzyme. Ebselen was purchased from BioFocus as a 10 mM stock in DMSO. […]

For data set [2], the system named is inositol levels in mice brains. Description: ex vivo inositol levels in mice brains by 1H NMR. Details: species or system mouse. Conditions: 1 hour after intraperitoneal injection, p<0.001 (FIG. 6). The method, then: Similar conclusions can be reached from the results shown in FIG. 6, in which inositol levels in mice brains were measured ex vivo using ^1H NMR spectroscopy. The results were obtained from brains removed from mice 1 hour after intraperitoneal injection either with ebselen or with a control.

Data set [3] has as its system mice. Put plainly: rearing experiments with intracerebroventricular inositol. Type of data set: in vivo, mouse. To be noted: ebselen 5 mg/kg i.p., after 60 minutes 5.5 μmol inositol intracerebroventricular (FIG. 10). Here is the method:
In these rearing experiments, mice were given an intraperitoneal injection of control or ebselen (5 mg/kg), and after 60 minutes were given an intracerebroventricular injection of control or 5.5 μmol inositol.

The next data set has as its system inositol monophosphatase. Put plainly: mouse ex vivo assay of IMPase activity in brain homogenate. Conditions: 5 mg/kg i.p., CD1 male mice, 1 hour (FIG. 5). The method, then: To determine the bio-availability of ebselen, a mouse ex vivo assay was used. In this assay mice were given an intraperitoneal (i.p.) injection of 5 mg/kg ebselen solublized in betacyclodextrin, according to the following procedure. A stock solution of 0.5 M ebselen in DMSO and a stock of 40% 2-Hydroxy propyl-beta-cyclodextrin (HPBCD) were made. A 3.5 mM solution of ebselen (from 0.5 M stock) was made into 40% HPBCD and finally, to obtain the concentration of 350 μM ebselen, a 1 in 10 dilution was carried out. A control solution was made containing the same dilution of DMSO and HPBCD. The volume of drug/vehicle injected i.p. into the mouse was 1 ml (for the animals dosed with ebselen this is approximately 5 mg/kg assuming each mouse weighs about 20 g). CD1 male mice, weighing approximately 20 g were used. The animals were dosed for one hour with either drug or vehicle before being killed by cervical dislocation. The brains were quickly dissected out and frozen in liquid nitrogen. […]
The protein concentration of each brain homogenate was determined and a stock of 2.5 mg of protein was made from the homogenate and stored. […] The intensity of the green color formed was measured at 595 nm.

In data set [4] the test system is mice. Description: amphetamine-induced hyperactivity (animal model of mania). The format is in vivo, mouse. To be noted: ebselen i.p., d-amphetamine 4 mg/kg after 60 minutes, 60 to 120 minutes, p<0.001 (FIGS. 7, 8). The method, then:
Activity and monitoring evaluation of mice was also studied. Mice were given an i.p. injection with saline (control) or ebselen (1, 5 or 10 mg/kg) and placed in a 35×35 cm perspex arena where their location was recorded by the Ethovision videotracking system (Noldus, Wageningen, The Netherlands). After 60 minutes, the mice were injected with d-amphetamine (4 mg/kg) or control. The Ethovision system follows the centre of the body of the mouse and records its position according to the location of this point. Data analysis was performed by Ethovision software, and distances moved within each 5 minute interval were calculated and plotted. The total distance moved was computed for the time frame from 60 to 120 minutes following the beginning of data acquisition. Amphetamine-induced hyperactivity is used as an animal model of mania, and is sensitive to mood-stabilising drugs such as lithium.

Data set [5] has as its system mice. Description: rearing experiments (infrared beam breaks, open-field test). The format is in vivo, mouse. To be noted: p=0.023 (FIG. 9). The method, then:
Rearing experiments were also carried out as follows. Mice were allowed to move freely within a caged equipped with infrared beam lines placed at two heights.
Mice could only break the upper beams by rearing.

Another data set deals with rats. Conditions: cited from earlier work.
For the next data set, the target named is T2, bovine IMPase (Bos taurus, UniProt P20456).
T2 sequence (P20456 1-277): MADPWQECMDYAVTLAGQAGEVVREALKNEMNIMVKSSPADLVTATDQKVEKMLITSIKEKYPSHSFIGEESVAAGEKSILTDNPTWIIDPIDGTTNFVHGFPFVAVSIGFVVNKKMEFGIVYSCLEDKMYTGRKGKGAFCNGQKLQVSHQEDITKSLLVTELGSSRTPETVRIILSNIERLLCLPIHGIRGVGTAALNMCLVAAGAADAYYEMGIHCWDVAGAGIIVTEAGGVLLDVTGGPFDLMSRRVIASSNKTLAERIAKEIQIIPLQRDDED
To be noted: reported value; cited from earlier work.

As for `O=c1c2ccccc2sn1-c1ccccc1` [2-phenyl-1,2-benzisothiazol-3(2H)-one], the “in vitro inhibition of IMPase” value in data set [1] (30 μM compound (FIG. 4)) is recorded as “inhibition of IMPase is also achieved”. Also, inhibition in data set [1] was half-maximal at 35000 nM (IC50).

On to `O=c1c2ccccc2[se]n1-c1ccccc1` [Ebselen, 2-phenyl-1,2-benzisoselenazol-3(2H)-one], for which the “inositol levels in the brain versus control” value in data set [2] is listed as “significantly lower”. In addition, in the data set on mice [3], the “effects of ebselen on suppressing rearing behaviour after inositol injection” value was “significantly reduced”. For the same compound, the “amount of phosphate detected (IMPase activity in brain homogenate) compared to the control” value in the data set with inositol monophosphatase is “significantly lower”. The “level of amphetamine-induced hyperactivity” value in the data set with mice [4] is recorded as “reduced level of amphetamine-induced hyperactivity”. Also, the “number of beam breaks (rearing) during the open-field test” value in the data set with mice [5] was “significantly reduced”. In the data set with rats, the LD50 result was “greater than 1000 mg/kg”. This compound registered an IC50 in data set [1] of approximately 2000 nM. The mode of inhibition result in data set [1] (purified human IMPase, various ebselen and substrate concentrations (FIG. 3)) is reported as “non-competitive mode of inhibition”.

For `CC(Oc1ccc(O)cc1)(P(=O)(O)O)P(=O)(O)O` [L690330], the half-inhibitory concentration (IC50) at bovine IMPase is approximately 300 nM; in data set [1], 1500 nM.
